Values quoted from earlier work in patent publication US8835453B2, “Sustained release implant for granisetron” (Development Center for Biotechnology, priority 2008, dated 2014).
Where a name gives a salt, the structure may show the parent alone.

Settings: water and normal saline at 20° C.

- solubility: soluble
SMILES: CN1C2CCCC1CC(NC(=O)c1nn(C)c3ccccc13)C2 (stereo not drawn) [Granisetron hydrochloride, endo-N-(9-methyl-9-azabicyclo[3.3.1]non-3-yl)-1-methyl-1H-indazole-3-carboxamide]
